Data as given in patent US4560676A, “N^α -desacetylthymosinα1 and process” (The Rockefeller University, priority 1981, dated 1985).
Where no end group is shown, it is not given here.

Key:
[1] = tested on: spleen cells of adult thymectomized mice; experiment: rosette inhibition assay (azathioprine-sensitive rosette assay); type: cell-based; settings: restoration of azathioprine sensitivity in rosette formation
Protocol: The desacetylthymosin α1 prepared and characterized above was compared with thymosin α1, prepared on both benzyhydrylamine and PAM resins in the rosette inhibition assay (azathioprine-sensitive rosette assay) as described by Dardenne and Bach in "The Biological Action of Thymic Hormones" (van Bekkum, D. K., Ed.), page 235 (Kooyker Scientific Publications, Rotterdam, 1975). In this assay the peptides are tested for ability to restore azathioprine sensitivity in rosette formation by spleen cells of adult thymectomized mice.

[2] = tested on: T-cell differentiation and function; settings: several in vitro and in vivo assay systems; cited from earlier work

Substance: SDAAVDTSSEITTKDLKEKKEVVEEAEN [desacetylthymosin α1, N^α -desacetylthymosin α1]
- activity in rosette inhibition assay compared with each other and with natural thymosin α1 [1]: equally active

Substance: thymosin α1 (SDAAVDTSSEITTKDLKEKKEVVEEAEN; ends and bridges not checked; UniProt P06454 2-29, looked up) [synthetic thymosin α1 prepared on benzhydrylamine and PAM resins; component of thymosin fraction 5]
- activity in rosette inhibition assay compared with each other and with natural thymosin α1 [1]: equally active
- activity relative to fraction 5 [2]: 10 to 1000 times
